Series [1] concerns Plasmodium falciparum. Kind of series: Antimalarial activity against PYR-sensitive Plasmodium falciparum TM4/8.2 expressing wild type DHFR incubated for 24 hrs by [3H]-hypoxanthine incorporation assay.
The nature of series [2]: Selectivity index, ratio of IC50 for cytotoxicity against African green monkey Vero cells to IC50 for antimalarial activity against PYR-resistant Plasmodium falciparum V1/S expressing DHFR N51I/C59R/S108N/I164L quadruple mutant.
Series [3] deals with Bifunctional dihydrofolate reductase-thymidylate synthase (Plasmodium falciparum K1, UniProt P13922). The series can be described thus: Inhibition of wild type Plasmodium falciparum DHFR expressed in Escherichia coli BL21(DE3) pLysS cells assessed as inhibition constant using DHF as substrate measured for 80 sec in presence of NADPH.
The nature of series [4]: Inhibition of wild type Plasmodium falciparum DHFR N51I/C59R/S108N/I164L quadruple mutant expressed in Escherichia coli BL21(DE3) pLysS cells assessed as inhibition constant using DHF as substrate measured for 80 sec in presence of NADPH.
The target in another series is T1, Dihydrofolate reductase (Homo sapiens, UniProt P00374).
T1 sequence (P00374 whole entry): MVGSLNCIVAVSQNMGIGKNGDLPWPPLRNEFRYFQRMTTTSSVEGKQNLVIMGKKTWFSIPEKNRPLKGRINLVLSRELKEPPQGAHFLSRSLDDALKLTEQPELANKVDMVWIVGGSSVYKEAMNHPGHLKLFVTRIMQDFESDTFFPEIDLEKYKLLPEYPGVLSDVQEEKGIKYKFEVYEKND
The series can be described thus: Inhibition of human DHFR expressed in Escherichia coli BL21(DE3) pLysS cells assessed as inhibition constant using DHF as substrate measured for 80 sec in presence of NADPH.

Another series is described as follows: physchem. Particulars: octanol/phosphate buffer, pH 7.4.
Series [5] concerns Plasmodium falciparum. The series can be described thus: Antimalarial activity against PYR-resistant Plasmodium falciparum V1/S expressing DHFR N51I/C59R/S108N/I164L quadruple mutant infected in human erythrocytes incubated for 24 hrs by [3H]-hypoxanthine incorporation assay.
Series [6] can be described thus: Cytotoxicity against African green monkey Vero cells assessed as reduction in cell viability incubated for 72 hrs by sulforhodamine B assay.
Series [7] is described as follows: Inhibition of Plasmodium falciparum DHFR N51I/C59R/S108N/I164L quadruple mutant.
Series [8] relates to Plasmodium falciparum. Kind of series: Antimalarial activity against PYR-sensitive Plasmodium falciparum TM4/8.2 expressing wild type DHFR by [3H]-hypoxanthine incorporation assay. To be noted: TM4/8.2, 3 h.
The nature of series [9]: Cytotoxicity against African green monkey Vero cells assessed as reduction in cell viability.
Series [10] can be described thus: in vitro. To be noted: human, liver microsomes. (Liver microsomes are a subcellular fraction often used to study metabolism.)
Description: Intrinsic clearance in human liver microsomes incubated up to 60 mins in presence of NADPH by LC-MS/MS analysis
A short description of series [11]: in vitro. Particulars: rat, liver microsomes.
Description: Intrinsic clearance in rat liver microsomes incubated up to 60 mins in presence of NADPH by LC-MS/MS analysis
In series [12] the test system is Plasmodium falciparum. The series can be described thus: Antimalarial activity against PYR-resistant Plasmodium falciparum V1/S expressing DHFR N51I/C59R/S108N/I164L quadruple mutant by [3H]-hypoxanthine incorporation assay.

pIC50, pKi: −log10 of the molar value.

One may read the pIC50 as the negative decadic logarithm of the IC50, by convention in mol/L. The pKi is the negative decadic logarithm of the Ki, by convention in mol/L. By logD is commonly meant the decadic logarithm of the distribution of all forms, ionised or not, between an organic phase and buffer at a given pH. As a reminder, the IC50 is the point on the concentration scale where inhibition reaches its midpoint. What is called microsomal CLint is the rate of metabolic loss divided by the concentration.

Chain of Bifunctional dihydrofolate reductase-thymidylate synthase (P13922 whole entry): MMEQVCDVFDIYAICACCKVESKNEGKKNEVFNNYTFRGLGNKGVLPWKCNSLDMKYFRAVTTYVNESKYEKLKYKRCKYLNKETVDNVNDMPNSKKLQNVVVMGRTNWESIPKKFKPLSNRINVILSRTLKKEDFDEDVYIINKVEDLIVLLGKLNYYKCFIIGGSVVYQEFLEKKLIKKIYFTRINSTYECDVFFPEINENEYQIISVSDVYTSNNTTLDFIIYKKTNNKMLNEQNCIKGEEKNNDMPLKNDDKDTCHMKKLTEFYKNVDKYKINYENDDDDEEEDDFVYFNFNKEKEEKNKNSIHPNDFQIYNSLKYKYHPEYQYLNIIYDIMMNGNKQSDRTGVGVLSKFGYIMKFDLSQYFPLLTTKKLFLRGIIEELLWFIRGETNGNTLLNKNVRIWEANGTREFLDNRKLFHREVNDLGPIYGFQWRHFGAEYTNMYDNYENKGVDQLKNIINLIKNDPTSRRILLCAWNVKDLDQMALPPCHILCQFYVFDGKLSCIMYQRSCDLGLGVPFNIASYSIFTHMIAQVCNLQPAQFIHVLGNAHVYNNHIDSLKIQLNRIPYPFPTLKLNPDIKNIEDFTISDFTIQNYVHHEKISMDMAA
Description for physchem: Lipophilicity, log D of the compound in octanol/phosphate buffer at pH 7.4 at 100 uM incubated for 2 hrs by HPLC analysis

Regarding `CCOC(=O)c1ccc(-c2ccc(OCCCCOc3c(N)nc(N)nc3CC)cc2)cc1`, the pIC50 in the series with Plasmodium falciparum [1] is 6.65; in the series with Plasmodium falciparum [5], 4.64. In addition, in [2], the selectivity ratio was more than 2.2. The pKi in series [3] was 9.17; in series [4] it was 9.00; on Dihydrofolate reductase it was less than 3.60. The same compound had a logD at 2 h, 100 µM in the series “physchem” of more than 2.5. Besides, the IC50 at 72 h in [6] was more than 50000 nM.
`CCc1nc(N)nc(N)c1OCCCOc1ccccc1CCC(=O)O` showed a pKi in [7] of 9.27. Further, the pIC50 with Plasmodium falciparum [8] is 8.30; in [9], less than 4.00; with Plasmodium falciparum [12], 7.25. In addition, the microsomal CLint at 1 h in “in vitro [10]” and in “in vitro [11]” was less than 3 µL/min/mg in each case.
